Data published in patent publication US20020004042A1, “Gene therapy for pulmonary edema using adenovirus vectors encoding a beta2adrenergic receptor gene” (priority 2000, published 2002).

Assays:
Na,K-ATPase = experiment: Western analysis of Na,K-ATPase α1 and β1 in basolateral membrane of A549 cells; assay type: cell-based, human; settings: ICI 118,551 10^-6 M 10 minutes prior to procaterol
Protocol: To test if β2AR overexpression can affect active Na^+ transport in vitro, A549 cells were treated as described above prior to measurement of ouabain-sensitive Na^+ transport (an index of Na,K-ATPase activity). […] Additional studies done to establish the mechanisms responsible for this finding included quantification of Na,K-ATPase α1 and β1 expression in the basolateral membrane of A549 cells.

rat lungs = experiment: Lung liquid clearance, fluid-filled isolated perfused rat lung preparation; assay type: in vivo, Sprague-Dawley rats; settings: procaterol 100 μg every 8 hours by gavage
Protocol: To test if β2AR gene transfer could increase transgene expression and if overexpression could affect the transepithelial osmotic gradient necessary to achieve pulmonary edema clearance, normal Sprague-Dawley rats were infected with the vectors disclosed in Example 1. 250-300 gm male Sprague-Dawley rats were lightly sedated with pentobarbital prior to orotracheal intubation with a 14 g angiocatheter. Adenovirus (4×10^9 pfu) was suspended in […] of a 50% surfactant/50% dialysis buffer mixture (Surfanta, Abbott Laboratories, Columbus, Ohio). […]
Seven days after infection, whole lung transgene expression was measured via Western analysis using a rabbit anti-human β2AR antibody and chemiluminescent detection method. […] To test for in vivo transgene function lung liquid clearance was measured using a well-established isolated lung preparation. […]
To test if agonist-induced loss of receptor function and/or expression occurs in the alveolar epithelium normal rats were treated with the β2AR specific agonist procaterol (100 μg every 8 hours by gavage). Lung liquid clearance was then measured using a fluid-filled isolated lung preparation in the presence of procaterol (10^−6 M instilled into the alveolar airspace and perfused through the pulmonary artery) beginning 4 hours after the first dose. […]

β2AR = target: T1, β2AR (Rattus norvegicus, UniProt P10608); experiment: Western analysis of β2AR in apical membranes of peripheral lung of procaterol-treated rats; assay type: in vivo; settings: procaterol 100 μg every 8 hours by gavage
T1 construct: from tissue; host or cells: apical membranes of rat peripheral lung
T1 sequence (P10608 whole entry): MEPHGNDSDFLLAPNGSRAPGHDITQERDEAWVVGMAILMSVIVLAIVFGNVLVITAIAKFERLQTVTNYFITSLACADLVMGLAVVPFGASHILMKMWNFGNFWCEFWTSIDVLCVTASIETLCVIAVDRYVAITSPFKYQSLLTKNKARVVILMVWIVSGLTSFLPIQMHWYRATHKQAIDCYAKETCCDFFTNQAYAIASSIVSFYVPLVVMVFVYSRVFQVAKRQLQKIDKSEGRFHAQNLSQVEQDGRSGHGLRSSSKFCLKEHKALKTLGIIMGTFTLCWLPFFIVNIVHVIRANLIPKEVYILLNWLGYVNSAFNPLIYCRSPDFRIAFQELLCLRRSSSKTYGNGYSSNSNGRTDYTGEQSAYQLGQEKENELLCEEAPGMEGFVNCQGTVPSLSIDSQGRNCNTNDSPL
Protocol: To test if agonist-induced loss of receptor function and/or expression occurs in the alveolar epithelium normal rats were treated with the β2AR specific agonist procaterol (100 μg every 8 hours by gavage). Lung liquid clearance was then measured using a fluid-filled isolated lung preparation in the presence of procaterol (10^−6 M instilled into the alveolar airspace and perfused through the pulmonary artery) beginning 4 hours after the first dose. […] Thus, the loss of catecholamine responsive lung liquid clearance in these rats is likely due, in part, to receptor downregulation.

Row | SMILES | effect of antagonist pre-treatment on recruitment of Na,K-ATPase to the cell membrane (Na,K-ATPase) | lung liquid clearance in presence of procaterol after procaterol pretreatment, 4 hours (rat lungs; 4 hours after first dose, 10^-6 M during measurement) | lung liquid clearance in presence of procaterol after procaterol pretreatment, 24 hours (rat lungs; 24 hours) | β2AR expression in apical membranes of peripheral lung (β2AR)
1 | Cc1ccc(OCC(O)C(C)NC(C)C)c2c1CCC2 (stereo not shown) [ICI 118,551] | blocked |  |  | 
2 | CCC(NC(C)C)C(O)c1ccc(O)c2[nH]c(=O)ccc12 (stereo not shown) [procaterol] |  | not different from untreated controls | remained less than naive rats | marked reductions
